Data published in patent US4396613A, “23-Ester derivatives of DMT and method of using same” (Eli Lilly and Company, priority 1981, dated 1983).
≈ marks a conversion by molar mass, not a printed value.

Assays:
Format in all cases: cell-based
[1] = system: Staphylococcus aureus S13E; assay: standard agar-dilution assay (MIC); details: unit assumed
Experimental: (§1) The MIC's in Table II were determined by standard agar-dilution assays. The MIC's in Table III were obtained using a conventional broth-dilution microtiter test.

[2] = system: Staphylococcus epidermidis EPI1; assay: standard agar-dilution assay (MIC); details: unit assumed
Experimental: as §1

[3] = system: Staphylococcus epidermidis EPI2; assay: standard agar-dilution assay (MIC); details: unit assumed
Experimental: as §1

[4] = system: Streptococcus pyogenes C203; assay: standard agar-dilution assay (MIC); details: unit assumed
Experimental: as §1

[5] = system: Staphylococcus aureus X1.1; assay: standard agar-dilution assay (MIC); details: unit assumed
Experimental: as §1

[6] = system: Haemophilus influenzae Holt; assay: standard agar-dilution assay (MIC); details: ampicillin-sensitive strain, unit assumed
Experimental: as §1

[7] = system: Haemophilus influenzae R252; assay: standard agar-dilution assay (MIC); details: Haemophilus influenzae R252, ampicillin-resistant strain, unit assumed
Experimental: as §1

[8] = system: Streptococcus Group D X66; assay: standard agar-dilution assay (MIC); details: unit assumed
Experimental: as §1

Streptococcus Group 9960 = assay: standard agar-dilution assay (MIC); details: unit assumed
Experimental: as §1

[9] = system: Streptococcus pneumoniae Park I; details: agar dilution, unit assumed
Experimental: as §1

Mycoplasma gallisepticum = assay: conventional broth-dilution microtiter test (MIC); details: unit assumed
Experimental: as §1

Streptococcus sp. 80 = assay: conventional broth-dilution microtiter test (MIC); details: unit assumed
Experimental: as §1

Mycoplasma synoviae = assay: conventional broth-dilution microtiter test (MIC); details: unit assumed
Experimental: as §1

Mycoplasma hyorhinis = assay: conventional broth-dilution microtiter test (MIC); details: unit assumed
Experimental: as §1

[10] = system: Pasteurella multocida 17E; assay: conventional broth-dilution microtiter test (MIC); details: bovine isolate, unit assumed
Experimental: as §1

Staphylococcus aureus = assay: conventional broth-dilution microtiter test (MIC); details: unit assumed
Experimental: as §1

[11] = system: Pasteurella multocida 60A; assay: conventional broth-dilution microtiter test (MIC); details: avian isolate, unit assumed
Experimental: as §1

[12] = system: Staphylococcus aureus V41; assay: standard agar-dilution assay (MIC); details: Staphylococcus aureus V41, penicillin-resistant strain, unit assumed
Experimental: as §1
^b Penicillinresistant strain

[13] = system: Staphylococcus aureus X400; assay: standard agar-dilution assay (MIC); details: Staphylococcus aureus X400, methicillin-resistant strain, unit assumed
Experimental: as §1
^c Methicillinresistant-strain

Structure (SMILES) | MIC [1] | MIC [2] | MIC [3] | MIC [4] | MIC [5] | MIC [6] | MIC [7] | MIC [8] | MIC (Streptococcus Group 9960) | MIC [9] | MIC (Mycoplasma gallisepticum) | MIC (Streptococcus sp. 80) | MIC (Mycoplasma synoviae) | MIC (Mycoplasma hyorhinis) | MIC [10] | MIC (Staphylococcus aureus) | MIC [11] | MIC [12] | MIC [13]
CCC1OC(=O)CC(O)C(C)C(OC2OC(C)C(OC3CC(C)(O)C(O)C(C)O3)C(N(C)C)C2O)C(CC=O)CC(C)C(=O)C=CC(C)=CC1COC(=O)Cc1ccccc1 (centres unmarked) [Compound 10, 23-O-Phenylacetyl-DMT] | 0.25 µg/mL (≈ 0.291 µM) | 0.5 µg/mL (≈ 0.581 µM) | 0.5 µg/mL (≈ 0.581 µM) | 0.125 µg/mL (≈ 0.145 µM) | 0.25 µg/mL (≈ 0.291 µM) | 2 µg/mL (≈ 2.33 µM) | 2 µg/mL (≈ 2.33 µM) | 0.5 µg/mL (≈ 0.581 µM) | 0.25 µg/mL (≈ 0.291 µM) | 0.03 µg/mL (≈ 0.0349 µM) | ≤ 0.048 µg/mL | 0.097 µg/mL (≈ 0.113 µM) | ≤ 0.048 µg/mL | 1.56 µg/mL (≈ 1.81 µM) | 1.56 µg/mL (≈ 1.81 µM) | 0.78 µg/mL (≈ 0.907 µM) | 3.12 µg/mL (≈ 3.63 µM) | 0.5 µg/mL (≈ 0.581 µM) | 0.5 µg/mL (≈ 0.581 µM)
CCC1OC(=O)CC(O)C(C)C(OC2OC(C)C(OC3CC(C)(O)C(O)C(C)O3)C(N(C)C)C2OC(C)=O)C(CC=O)CC(C)C(=O)C=CC(C)=CC1COC(=O)C=Cc1ccccc1 (centres unmarked) [Compound 11] | 1 µg/mL (≈ 1.09 µM) | 1 µg/mL (≈ 1.09 µM) | 4 µg/mL (≈ 4.38 µM) | 1 µg/mL (≈ 1.09 µM) | 1 µg/mL (≈ 1.09 µM) | 128 µg/mL (≈ 140 µM) | 128 µg/mL (≈ 140 µM) | 2 µg/mL (≈ 2.19 µM) | 2 µg/mL (≈ 2.19 µM) | 0.25 µg/mL (≈ 0.273 µM) | 0.39 µg/mL (≈ 0.427 µM) | 0.78 µg/mL (≈ 0.853 µM) | 3.12 µg/mL (≈ 3.41 µM) | 6.25 µg/mL (≈ 6.84 µM) | 12.5 µg/mL (≈ 13.7 µM) | 1.56 µg/mL (≈ 1.71 µM) | > 50 µg/mL | 0.5 µg/mL (≈ 0.547 µM) | 2 µg/mL (≈ 2.19 µM)
CCC1OC(=O)CC(O)C(C)C(OC2OC(C)C(OC3CC(C)(O)C(O)C(C)O3)C(N(C)C)C2OC(=O)Cc2ccccc2)C(CC=O)CC(C)C(=O)C=CC(C)=CC1COC(=O)Cc1ccccc1 (centres unmarked) [Compound 17] | 1 µg/mL (≈ 1.02 µM) | 1 µg/mL (≈ 1.02 µM) | 1 µg/mL (≈ 1.02 µM) | 0.5 µg/mL (≈ 0.511 µM) | 1 µg/mL (≈ 1.02 µM) | > 128 µg/mL | > 128 µg/mL | 1 µg/mL (≈ 1.02 µM) | 1 µg/mL (≈ 1.02 µM) | 0.125 µg/mL (≈ 0.128 µM) | 0.78 µg/mL (≈ 0.797 µM) | 0.78 µg/mL (≈ 0.797 µM) | 1.56 µg/mL (≈ 1.59 µM) | 6.25 µg/mL (≈ 6.39 µM) | 6.25 µg/mL (≈ 6.39 µM) | 0.78 µg/mL (≈ 0.797 µM) | 25 µg/mL (≈ 25.6 µM) | 1 µg/mL (≈ 1.02 µM) | 2 µg/mL (≈ 2.04 µM)
CCC1OC(=O)CC(O)C(C)C(OC2OC(C)C(OC3CC(C)(O)C(O)C(C)O3)C(N(C)C)C2OC(C)=O)C(CC=O)CC(C)C(=O)C=CC(C)=CC1COC(=O)CCCCc1ccccc1 (centres unmarked) [Compound 18] | 1 µg/mL (≈ 1.06 µM) | 1 µg/mL (≈ 1.06 µM) | 2 µg/mL (≈ 2.12 µM) | 0.5 µg/mL (≈ 0.53 µM) | 1 µg/mL (≈ 1.06 µM) | > 128 µg/mL | > 128 µg/mL | 2 µg/mL (≈ 2.12 µM) | 1 µg/mL (≈ 1.06 µM) | 0.125 µg/mL (≈ 0.132 µM) | < 0.05 µg/mL | 0.78 µg/mL (≈ 0.826 µM) | 6.25 µg/mL (≈ 6.62 µM) | 12.5 µg/mL (≈ 13.2 µM) | 50 µg/mL (≈ 53 µM) | 1.56 µg/mL (≈ 1.65 µM) | > 50 µg/mL | 2 µg/mL (≈ 2.12 µM) | 2 µg/mL (≈ 2.12 µM)
CCC1OC(=O)CC(O)C(C)C(OC2OC(C)C(OC3CC(C)(O)C(O)C(C)O3)C(N(C)C)C2OC(C)=O)C(CC=O)CC(C)C(=O)C=CC(C)=CC1COC(=O)Cc1cc(OC)ccc1OC (centres unmarked) [Compound 20] | 0.5 µg/mL (≈ 0.52 µM) | 0.5 µg/mL (≈ 0.52 µM) | 0.5 µg/mL (≈ 0.52 µM) | 0.25 µg/mL (≈ 0.26 µM) | 0.5 µg/mL (≈ 0.52 µM) | 32 µg/mL (≈ 33.3 µM) | 16 µg/mL (≈ 16.6 µM) | 0.5 µg/mL (≈ 0.52 µM) | 2 µg/mL (≈ 2.08 µM) | 0.06 µg/mL (≈ 0.0624 µM) | 0.195 µg/mL (≈ 0.203 µM) | 0.195 µg/mL (≈ 0.203 µM) | 0.39 µg/mL (≈ 0.405 µM) | 1.56 µg/mL (≈ 1.62 µM) | 12.5 µg/mL (≈ 13 µM) | 0.78 µg/mL (≈ 0.811 µM) | 25 µg/mL (≈ 26 µM) | 0.5 µg/mL (≈ 0.52 µM) | 0.5 µg/mL (≈ 0.52 µM)
